Assay results reported in the supplement of paper PMC10307832.

How the values were obtained:
Assay in all cases: relative viability (nuclei count vs DMSO), 5 days (fraction); higher = more cells survive
[1] = compound: C1=CC2=NC=CN=C2C=C1/C=C/3\C(=O)NC(=O)S3 + Cc1nc(Nc2ncc(C(=O)Nc3c(C)cccc3Cl)s2)cc(N2CCN(CCO)CC2)n1 [Dasatinib] (partner 0.075 µM)
In short: (§1)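 A single step with final 0.05% Triton X-100, 1% formaldehyde and 1 ug/ml Hoechst fixed the cells and stained nuclei 5 days after treatment. Lung cancer cell lines in 1536-well plates had been treated by pin tool the day after seeding with one drug alone or a fixed anchor-drug dose plus five library-drug doses (not always all listed) in √10 steps, and nuclei were counted on 4× images. Relative viability is the ratio of nuclei in treated wells to nuclei in vehicle wells, taken as the median of duplicate plates.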

BGJ398 + Olaparib = compound: CCN1CCN(c2ccc(Nc3cc(N(C)C(=O)Nc4c(Cl)c(OC)cc(OC)c4Cl)ncn3)cc2)CC1 [BGJ398] + O=C(c1cc(Cc2n[nH]c(=O)c3ccccc23)ccc1F)N1CCN(C(=O)C2CC2)CC1 [Olaparib] (partner 8 µM)
In short: as §1

[2] = compound: C1=CC2=NC=CN=C2C=C1/C=C/3\C(=O)NC(=O)S3 + O=C(c1cc(Cc2n[nH]c(=O)c3ccccc23)ccc1F)N1CCN(C(=O)C2CC2)CC1 [Olaparib] (partner 8 µM)
In short: as §1

BGJ398 + Pictilisib = compound: CCN1CCN(c2ccc(Nc3cc(N(C)C(=O)Nc4c(Cl)c(OC)cc(OC)c4Cl)ncn3)cc2)CC1 [BGJ398] + CS(=O)(=O)N1CCN(Cc2cc3nc(-c4cccc5[nH]ncc45)nc(N4CCOCC4)c3s2)CC1 [Pictilisib] (partner 1 µM)
In short: as §1

UMC-11
relative viability ([1]; first compound 0.02 µM): 0.467 | relative viability ([1]; first compound 0.06325 µM): 0.523 | relative viability ([1]; first compound 0.2 µM): 0.427 | relative viability ([1]; first compound 0.6325 µM): 0.489 | relative viability ([1]; first compound 2 µM): 0.519 | relative viability (BGJ398 + Olaparib; first compound 0.01 µM): 0.316 | relative viability (BGJ398 + Olaparib; first compound 0.03162 µM): 0.447 | relative viability (BGJ398 + Olaparib; first compound 0.1 µM): 0.376 | relative viability (BGJ398 + Olaparib; first compound 0.3162 µM): 0.367 | relative viability (BGJ398 + Olaparib; first compound 1 µM): 0.342 | relative viability ([2]; first compound 0.02 µM): 0.336 | relative viability ([2]; first compound 0.06325 µM): 0.423 | relative viability ([2]; first compound 0.2 µM): 0.391 | relative viability ([2]; first compound 0.6325 µM): 0.336 | relative viability ([2]; first compound 2 µM): 0.379 | relative viability (BGJ398 + Pictilisib; first compound 0.01 µM): 0.839 | relative viability (BGJ398 + Pictilisib; first compound 0.03162 µM): 0.686 | relative viability (BGJ398 + Pictilisib; first compound 0.1 µM): 0.897 | relative viability (BGJ398 + Pictilisib; first compound 0.3162 µM): 0.73 | relative viability (BGJ398 + Pictilisib; first compound 1 µM): 0.707
